Assay [1] deals with T1, Gamma-aminobutyric acid receptor subunit alpha-1 (Rattus norvegicus, UniProt P62813). The format is functional.
The target of assay [2] is Motilin receptor (Homo sapiens, UniProt O43193).
Assay [3] concerns the target T2, Amine oxidase [flavin-containing] A (Homo sapiens, UniProt P21397).
T2 sequence (P21397 whole entry): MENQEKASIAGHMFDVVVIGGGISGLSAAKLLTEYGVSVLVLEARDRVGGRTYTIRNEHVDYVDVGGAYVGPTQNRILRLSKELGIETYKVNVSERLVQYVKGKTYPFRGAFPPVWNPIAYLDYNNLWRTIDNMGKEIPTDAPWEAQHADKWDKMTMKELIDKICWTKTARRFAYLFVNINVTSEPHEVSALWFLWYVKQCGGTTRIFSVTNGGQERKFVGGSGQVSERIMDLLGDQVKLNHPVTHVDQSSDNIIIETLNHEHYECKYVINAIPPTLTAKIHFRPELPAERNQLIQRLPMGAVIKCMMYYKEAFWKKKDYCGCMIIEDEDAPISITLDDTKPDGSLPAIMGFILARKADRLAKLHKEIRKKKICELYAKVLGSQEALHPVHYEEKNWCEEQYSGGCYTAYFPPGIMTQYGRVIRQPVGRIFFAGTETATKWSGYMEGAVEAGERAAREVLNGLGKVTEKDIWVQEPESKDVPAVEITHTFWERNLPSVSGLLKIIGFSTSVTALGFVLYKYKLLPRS
The format is functional.

The target in assay [4] is T1, Gamma-aminobutyric acid receptor subunit alpha-1.
The target of assay [5] is T3, Alpha-2A adrenergic receptor (Homo sapiens, UniProt P08913).
T3 sequence (P08913 whole entry): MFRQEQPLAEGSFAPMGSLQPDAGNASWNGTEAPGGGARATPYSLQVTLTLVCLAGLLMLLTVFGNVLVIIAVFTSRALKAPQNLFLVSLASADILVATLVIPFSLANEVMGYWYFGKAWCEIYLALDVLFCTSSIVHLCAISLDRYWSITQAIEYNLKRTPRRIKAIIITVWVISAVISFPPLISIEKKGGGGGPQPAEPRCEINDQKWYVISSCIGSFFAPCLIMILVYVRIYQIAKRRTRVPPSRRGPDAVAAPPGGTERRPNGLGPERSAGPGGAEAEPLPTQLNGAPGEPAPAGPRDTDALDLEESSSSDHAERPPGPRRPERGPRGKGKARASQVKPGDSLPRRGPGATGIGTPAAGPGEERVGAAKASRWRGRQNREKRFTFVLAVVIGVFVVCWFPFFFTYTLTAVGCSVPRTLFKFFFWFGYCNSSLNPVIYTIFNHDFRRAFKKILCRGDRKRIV
The format is functional, cell-based.

Assay [6] deals with T4, 5-hydroxytryptamine receptor 1A (Homo sapiens, UniProt P08908).
T4 sequence (P08908 whole entry): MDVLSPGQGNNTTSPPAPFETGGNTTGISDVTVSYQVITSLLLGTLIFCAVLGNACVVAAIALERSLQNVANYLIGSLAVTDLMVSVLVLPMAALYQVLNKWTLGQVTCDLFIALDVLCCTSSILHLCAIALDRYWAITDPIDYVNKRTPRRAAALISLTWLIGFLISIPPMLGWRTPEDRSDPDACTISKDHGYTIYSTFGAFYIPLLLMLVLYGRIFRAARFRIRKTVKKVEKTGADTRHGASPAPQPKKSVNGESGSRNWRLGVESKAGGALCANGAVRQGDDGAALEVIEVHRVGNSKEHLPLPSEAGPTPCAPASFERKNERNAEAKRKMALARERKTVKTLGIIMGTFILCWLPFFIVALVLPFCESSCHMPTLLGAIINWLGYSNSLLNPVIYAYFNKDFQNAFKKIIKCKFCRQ
The format is functional, cell-based.

Assay [7] addresses Sodium-dependent dopamine transporter (Homo sapiens, UniProt Q01959).
Assay [8] deals with Histamine H2 receptor (Homo sapiens, UniProt P25021). In kind it is functional, cell-based.
For assay [9], the target named is T5, Adenosine receptor A3 (Homo sapiens, UniProt P0DMS8).
T5 sequence (P0DMS8 whole entry): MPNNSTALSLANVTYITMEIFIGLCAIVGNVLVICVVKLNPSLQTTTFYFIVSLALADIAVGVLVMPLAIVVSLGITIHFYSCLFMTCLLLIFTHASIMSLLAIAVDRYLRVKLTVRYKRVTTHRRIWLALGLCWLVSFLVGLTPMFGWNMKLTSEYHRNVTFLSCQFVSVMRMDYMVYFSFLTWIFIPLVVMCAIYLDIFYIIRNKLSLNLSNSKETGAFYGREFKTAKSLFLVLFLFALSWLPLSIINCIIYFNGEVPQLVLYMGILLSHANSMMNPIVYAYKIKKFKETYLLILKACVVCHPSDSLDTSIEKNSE

Assay [10] has as its target Delta-type opioid receptor (Homo sapiens, UniProt P41143).
Assay [11] addresses D(1A) dopamine receptor (Homo sapiens, UniProt P21728). In kind it is functional, cell-based.

For 14 compounds, AC50 results are on record in ChEMBL document CHEMBL5291721, “A preclinical secondary pharmacology resource illuminates target-adverse drug reaction associations of marketed drugs” (Nat Commun, 2023).

In general, AC50 refers to the concentration giving half of the maximal activity seen. Read a high AC50 as activity only at high concentration.
Further: assay procedure not described here.

Motilin receptor, sequence (O43193 whole entry): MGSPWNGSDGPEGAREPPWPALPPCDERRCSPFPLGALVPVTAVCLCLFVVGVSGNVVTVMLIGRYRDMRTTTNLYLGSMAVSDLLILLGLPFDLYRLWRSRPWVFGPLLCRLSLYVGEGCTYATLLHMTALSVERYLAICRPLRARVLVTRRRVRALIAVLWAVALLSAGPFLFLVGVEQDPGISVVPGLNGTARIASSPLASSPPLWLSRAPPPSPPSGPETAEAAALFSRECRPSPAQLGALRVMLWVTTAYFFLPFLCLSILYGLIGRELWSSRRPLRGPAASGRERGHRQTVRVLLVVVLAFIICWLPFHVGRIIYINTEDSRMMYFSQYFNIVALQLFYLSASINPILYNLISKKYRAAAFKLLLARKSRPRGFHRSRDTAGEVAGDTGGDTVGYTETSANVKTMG
D(1A) dopamine receptor, sequence (P21728 whole entry): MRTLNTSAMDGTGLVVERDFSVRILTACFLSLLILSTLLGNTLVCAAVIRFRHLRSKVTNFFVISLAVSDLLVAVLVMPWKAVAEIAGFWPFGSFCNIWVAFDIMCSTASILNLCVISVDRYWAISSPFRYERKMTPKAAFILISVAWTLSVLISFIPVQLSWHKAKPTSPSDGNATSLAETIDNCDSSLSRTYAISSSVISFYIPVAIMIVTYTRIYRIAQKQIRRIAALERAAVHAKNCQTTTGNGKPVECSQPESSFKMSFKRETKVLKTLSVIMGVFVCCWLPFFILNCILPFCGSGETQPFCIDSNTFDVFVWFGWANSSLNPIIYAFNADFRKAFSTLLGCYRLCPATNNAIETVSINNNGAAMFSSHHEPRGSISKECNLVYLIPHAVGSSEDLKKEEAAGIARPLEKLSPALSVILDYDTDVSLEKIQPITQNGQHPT
Sodium-dependent dopamine transporter, sequence (Q01959 whole entry): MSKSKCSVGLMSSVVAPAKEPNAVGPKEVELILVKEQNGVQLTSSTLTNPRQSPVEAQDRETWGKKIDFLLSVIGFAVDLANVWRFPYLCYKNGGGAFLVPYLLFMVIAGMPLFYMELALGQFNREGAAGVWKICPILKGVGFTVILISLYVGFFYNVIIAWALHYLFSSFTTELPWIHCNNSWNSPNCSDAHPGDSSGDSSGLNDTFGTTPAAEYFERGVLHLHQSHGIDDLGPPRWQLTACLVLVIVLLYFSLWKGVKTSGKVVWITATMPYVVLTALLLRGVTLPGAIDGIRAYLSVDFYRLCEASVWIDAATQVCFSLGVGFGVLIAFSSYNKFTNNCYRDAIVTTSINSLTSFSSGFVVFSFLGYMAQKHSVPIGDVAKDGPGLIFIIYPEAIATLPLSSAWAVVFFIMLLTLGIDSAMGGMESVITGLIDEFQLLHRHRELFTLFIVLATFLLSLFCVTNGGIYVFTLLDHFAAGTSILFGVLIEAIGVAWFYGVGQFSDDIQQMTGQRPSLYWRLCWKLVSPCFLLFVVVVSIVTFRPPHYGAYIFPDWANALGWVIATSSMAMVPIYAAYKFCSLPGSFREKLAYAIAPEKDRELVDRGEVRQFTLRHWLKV
Histamine H2 receptor, sequence (P25021 whole entry): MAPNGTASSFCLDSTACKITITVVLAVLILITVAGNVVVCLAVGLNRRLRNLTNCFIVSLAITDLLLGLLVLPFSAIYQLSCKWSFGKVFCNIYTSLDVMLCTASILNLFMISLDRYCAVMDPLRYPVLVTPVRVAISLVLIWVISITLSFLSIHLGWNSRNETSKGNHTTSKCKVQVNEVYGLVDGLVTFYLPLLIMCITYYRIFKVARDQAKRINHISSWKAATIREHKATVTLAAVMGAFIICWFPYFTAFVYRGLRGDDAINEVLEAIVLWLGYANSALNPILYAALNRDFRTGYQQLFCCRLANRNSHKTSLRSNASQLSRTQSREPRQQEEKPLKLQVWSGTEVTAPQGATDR
T1 sequence (P62813 whole entry): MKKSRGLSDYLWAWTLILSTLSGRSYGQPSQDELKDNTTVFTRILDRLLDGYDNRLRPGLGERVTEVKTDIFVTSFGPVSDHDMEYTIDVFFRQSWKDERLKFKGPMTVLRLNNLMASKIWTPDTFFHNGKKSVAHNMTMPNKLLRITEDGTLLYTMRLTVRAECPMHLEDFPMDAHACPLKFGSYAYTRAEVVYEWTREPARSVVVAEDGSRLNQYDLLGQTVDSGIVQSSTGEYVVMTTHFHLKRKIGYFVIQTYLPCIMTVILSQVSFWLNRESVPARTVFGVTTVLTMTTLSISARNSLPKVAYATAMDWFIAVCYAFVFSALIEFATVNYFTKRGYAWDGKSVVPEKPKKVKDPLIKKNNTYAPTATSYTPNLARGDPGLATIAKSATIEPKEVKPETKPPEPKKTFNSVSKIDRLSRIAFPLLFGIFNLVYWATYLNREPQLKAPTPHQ
Delta-type opioid receptor, sequence (P41143 whole entry): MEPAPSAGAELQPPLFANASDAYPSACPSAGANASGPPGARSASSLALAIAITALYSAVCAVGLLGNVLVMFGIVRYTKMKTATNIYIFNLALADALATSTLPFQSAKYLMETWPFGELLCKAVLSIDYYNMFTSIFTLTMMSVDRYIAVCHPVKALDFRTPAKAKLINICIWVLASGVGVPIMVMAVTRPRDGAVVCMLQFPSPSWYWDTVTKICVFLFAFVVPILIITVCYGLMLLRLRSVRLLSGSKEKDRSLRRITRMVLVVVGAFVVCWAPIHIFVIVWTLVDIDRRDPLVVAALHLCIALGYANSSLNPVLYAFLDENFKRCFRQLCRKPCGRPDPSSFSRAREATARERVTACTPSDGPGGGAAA

On to `C[C@]12CC[C@H](O)CC1=CC[C@@H]1[C@@H]2CC[C@]2(C)C(c3cccnc3)=CC[C@@H]12` [ABIRATERONE], for which the AC50 in assay [1], in [2], in [3], in assay [4], in assay [5] and in assay [6] was more than 10 µM in each case. Besides, the AC50 in assay [7] was more than 30 µM; in assay [8], more than 10 µM; in [9], more than 30 µM; in assay [10], more than 30 µM; in assay [11], more than 10 µM.

Take `CN(C)C(=O)Oc1cc(OC(=O)N(C)C)cc(C(O)CNC(C)(C)C)c1` (stereo unspecified) [BAMBUTEROL]: the AC50 in assay [2], in [7] and in assay [9] was more than 30 µM in each case.

`C[C@H]1C[C@H]2[C@@H]3CCC4=CC(=O)C=C[C@]4(C)[C@@]3(Cl)[C@@H](O)C[C@]2(C)[C@@]1(O)C(=O)CO` [BECLOMETHASONE]: the AC50 is more than 10 µM in assay [1]; more than 10 µM in assay [2]; more than 10 µM in [3]; more than 10 µM in assay [4]; more than 10 µM in assay [7]; more than 30 µM in assay [9]. The compound further yielded an AC50 in assay [10] of more than 30 µM.

As to `NS(=O)(=O)c1cc(C2(O)NC(=O)c3ccccc32)ccc1Cl` (stereo unspecified) [CHLORTHALIDONE], the AC50 in [1], in [2], in [3], in assay [4], in assay [5] and in assay [6] was more than 10 µM in each case. Also, the concentration at half-maximal activity (AC50) in assay [7], in [8], in assay [9] and in assay [11] was more than 10 µM throughout.

Regarding `C[C@@H]1CCC[C@H](C)N1NC(=O)c1ccc(Cl)c(S(N)(=O)=O)c1` [CLOPAMIDE], the AC50 in [1], in [2], in assay [3], in assay [4], in assay [5] and in assay [6] was more than 30 µM throughout. In addition, the AC50 in assay [7], in assay [8], in assay [9], in assay [10] and in assay [11] was more than 30 µM in each case.

On to `COc1ccc2c(c1)[C@]13CCCC[C@@H]1[C@H](C2)N(C)CC3` [DEXTROMETHORPHAN], for which the AC50 in assay [1], in assay [2], in assay [3], in assay [4], in assay [5] and in assay [6] was more than 10 µM throughout. Further, the AC50 in assay [7] is more than 10 µM; in assay [8], more than 10 µM; in assay [9] it was more than 30 µM; in [10], more than 10 µM; in assay [11], more than 10 µM.

As for `O=c1oc2ccccc2c(O)c1Cc1c(O)c2ccccc2oc1=O` [DICUMAROL], the AC50 in assay [1], in [2], in assay [3], in [4], in assay [5] and in assay [6] was more than 10 µM throughout. Also, the AC50 in [7] is more than 10 µM; in assay [8], more than 10 µM; in assay [9], more than 10 µM; in [10], more than 30 µM; in [11], more than 10 µM.

Consider `O=C(O)CSCC(=O)NC1CCSC1=O` (stereo unspecified) [ERDOSTEINE], for which the AC50 in assay [1], in [2], in [3], in [4], in assay [5] and in assay [6] was more than 30 µM each time. Further, the half-maximal activity concentration (AC50) in [7], in assay [8], in assay [9], in [10] and in assay [11] was more than 30 µM throughout.

Consider `COc1cccc(N(C)C(=S)Oc2ccc3c(c2)CCCC3)n1` [LIRANAFTATE], for which the AC50 in [1] was more than 30 µM; in assay [2], more than 30 µM; in [3], 18 µM; in assay [4], more than 30 µM; in assay [5], more than 30 µM; in assay [6], more than 30 µM. Besides, the AC50 in [7], in assay [8], in assay [9], in assay [10] and in assay [11] was more than 30 µM throughout.

For `C#C[C@]1(O)CC[C@H]2[C@@H]3CCc4cc(OC)ccc4[C@H]3CC[C@@]21C` [MESTRANOL], the AC50 in [1] is more than 10 µM; in assay [2], more than 10 µM; in assay [3], more than 30 µM; in [4] it was more than 10 µM; in [5] it was more than 10 µM; in assay [6] it was more than 10 µM. In addition, the AC50 in assay [7] is 20 µM; in assay [8], more than 30 µM; in [9], more than 30 µM; in [10] it was more than 30 µM; in assay [11] it was more than 10 µM.

On to `N=C(N)c1ccc2cc(OC(=O)c3ccc(N=C(N)N)cc3)ccc2c1` [NAFAMOSTAT], for which the AC50 in assay [1] is more than 30 µM; in assay [2] it was 27 µM; in assay [3], 14 µM; in assay [4], 3.5 µM; in assay [5], more than 30 µM; in assay [6], more than 30 µM. Moreover, the AC50 in assay [7] is 2.8 µM; in [8], more than 30 µM; in assay [9], 21 µM; in [11] it was more than 30 µM.

As for `O=C(O)c1cc(O)c2c3nc4ccccc4oc-3cc(=O)c2n1` [PIRENOXINE], the AC50 in assay [1] is more than 30 µM; in assay [2], more than 30 µM; in assay [3], 2.2 µM; in [4] it was more than 30 µM; in assay [5], more than 30 µM; in assay [6], more than 30 µM. Further, the AC50 was more than 30 µM in assay [7]; more than 30 µM in assay [8]; more than 30 µM in assay [9]; 2.2 µM in [10]; more than 30 µM in assay [11].

`CNCCCC1c2ccccc2C=Cc2ccccc21` [PROTRIPTYLINE]: the AC50 in assay [1] is more than 10 µM; in [2], more than 10 µM; in assay [3], more than 10 µM; in assay [4] it was more than 10 µM; in assay [6], more than 10 µM; in [7], 17.8 µM. Moreover, the AC50 in assay [8] is more than 10 µM; in assay [9] it was more than 10 µM; in assay [10] it was more than 30 µM; in assay [11], more than 10 µM.

Regarding `O=C(CCCN1CCC2(CC1)C(=O)NCN2c1ccccc1)c1ccc(F)cc1` [SPIPERONE], the AC50 in assay [1] is more than 30 µM; in [2] it was more than 30 µM; in assay [3], more than 30 µM; in assay [4] it was more than 30 µM; in assay [5], 0.98 µM; in assay [7], 7.2 µM. Further, the AC50 in assay [8] and in assay [9] was more than 30 µM each time.
